How the values were obtained:
[1] = system: human primary tumor xenograft models; experiment: phase 2-like preclinical study in human primary tumor xenograft (PDX) models, % ΔTGI response vs mutation status; type: in vivo, Balb/c nude mice; settings: 77 PDX models, crystalline form A of Compound 1 hemihydrate, 60 mg/kg, Bid, po, 21 days, 3 days on 4 days off
Excerpt: Compound 1 is an investigational drug under clinical development for cancer treatment. Compound 1 achieves anti-tumor effects by inhibiting Cdc7 kinase, which is involved in DNA replication and repair. Predictive biomarker identification was investigated using data derived from a phase 2-like preclinical study, that is human primary tumor xenograft models using Balb/c nude mice ([…], female, 6-8 weeks old, 18-22 g). For each model, 6 tumor bearing mice were randomized into 2 groups. Tumor fragments from seed mice inoculated with selected PDX tumors were harvested and used for inoculation into Balb/c nude mice. Each mouse was inoculated subcutaneously at the right flank with one tumor fragment (2-3 mm in diameter). The treatments were started when mean tumor size reached approximately 200-250 mm^3. Mice were dosed orally with either vehicle or Compound 1 (crystalline form A of Compound 1 hemihydrate, 60 mg/kg, Bid, po, 21 days, 3 days on 4 days off). TP53 mutation status and hypermutation status as measured by microsatellite instability/stability (MSI/MSS) status were identified as predictive biomarkers for cancer treatment with Compound 1.
Whole exome sequencing (WES) and RNA sequencing (RNASeq) were done for 92 xenograft models whose cancer types are colon (n=40), pancreas (n=24), non-small cell lung (n=23), and ovary cancer (n=5).
In this study, % ΔTGI (percent delta tumor growth inhibition) was used and its mathematical definition is as follows.
In the above equation, Tt and T0 represent the sizes of tumor in treatment at time t and 0 and similarly Ct and C0 mean the sizes of tumor in control (vehicle) at the same time points t and 0. Therefore, a large % ΔTGI indicates a higher degree of tumor growth inhibition in treatment than in vehicle.
Binary response was inferred by categorizing % ΔTGI, so that samples were classified as responders with high % ΔTGI and non-responders with low % ΔTGI. Chi-square test was run to evaluate the potential association between the class labels (responder vs. non-responder) and mutational status (MUT vs. WT). […]

human hepatocytes = experiment: metabolism in human hepatocytes; type: in vitro ADME; settings: metabolite structures shown in drawing 7

Compound: Cc1[nH]ncc1-c1cc2nc([C@@H]3CC4CCN3CC4)[nH]c(=O)c2s1 [Compound 1, 2-[(2S)-1-azabicyclo[2.2.2]oct-2-yl]-6-(3-methyl-1H-pyrazol-4-yl)thieno[3,2-d]pyrimidin-4(3H)-one]
- association of TP53 mutation with response (% ΔTGI, responder vs. non-responder) ([1]; Chi-square test / decision tree): most significantly associated with response
- association of CHD family genes mutation with response (% ΔTGI, responder vs. non-responder) ([1]; decision tree): associated with non-response
- association of hypermutation with response (% ΔTGI, responder vs. non-responder) ([1]; decision tree): associated with non-response
- metabolism to metabolites (human hepatocytes): can be metabolized to compounds of the following structures
